According to ChEMBL document CHEMBL4837268, “Influence of Linker Attachment Points on the Stability and Neosubstrate Degradation of Cereblon Ligands” (ACS Med Chem Lett, 2021):
Active and inactive are the calls of the source. The calls are words filed in the database; no cut-off is given here.

Experiments:
physchem = details: buffer, pH 7.4
Description: Lipophilicity, logD of the compound at pH 7.4 by HPLC analysis

[1] = Stability of the compound in acetonitrile/buffer mixture at pH 7.4 assessed as parent compound remaining measured after 24 hrs by HPLC analysis; type: physicochemical; details: read-out: Stabilty
[2] = molecular target: T1, Cereblon/Ikaros (Homo sapiens) (UniProt Q96SW2+Q13422); experiment: Protac activity at CRBN/IKZF1 in human MM1.S cells assessed as induction of IKZF1 degradation at 1 uM incubated for 6 hrs relative to control; type: cell-based
[3] = molecular target: Protein cereblon/Cyclin-dependent kinase 4 (Homo sapiens) (UniProt P11802+Q96SW2); experiment: Protac activity at CRBN/CDK4 in human MM1.S cells assessed as protein levels at 1 uM measured after 72 hrs by Western blot analysis relative to control; type: cell-based
Sequence of Protein cereblon/Cyclin-dependent kinase 4 (Homo sapiens) (P11802 2-303 limits assumed): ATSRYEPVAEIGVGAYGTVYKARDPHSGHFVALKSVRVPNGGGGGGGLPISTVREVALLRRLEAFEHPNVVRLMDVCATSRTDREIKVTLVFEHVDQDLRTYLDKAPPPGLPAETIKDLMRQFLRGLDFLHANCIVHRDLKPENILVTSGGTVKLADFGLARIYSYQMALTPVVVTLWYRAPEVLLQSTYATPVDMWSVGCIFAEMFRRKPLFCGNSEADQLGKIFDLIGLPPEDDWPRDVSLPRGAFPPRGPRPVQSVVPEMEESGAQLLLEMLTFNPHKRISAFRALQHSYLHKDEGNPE
Sequence of Protein cereblon/Cyclin-dependent kinase 4 (Homo sapiens) (Q96SW2 whole entry partner): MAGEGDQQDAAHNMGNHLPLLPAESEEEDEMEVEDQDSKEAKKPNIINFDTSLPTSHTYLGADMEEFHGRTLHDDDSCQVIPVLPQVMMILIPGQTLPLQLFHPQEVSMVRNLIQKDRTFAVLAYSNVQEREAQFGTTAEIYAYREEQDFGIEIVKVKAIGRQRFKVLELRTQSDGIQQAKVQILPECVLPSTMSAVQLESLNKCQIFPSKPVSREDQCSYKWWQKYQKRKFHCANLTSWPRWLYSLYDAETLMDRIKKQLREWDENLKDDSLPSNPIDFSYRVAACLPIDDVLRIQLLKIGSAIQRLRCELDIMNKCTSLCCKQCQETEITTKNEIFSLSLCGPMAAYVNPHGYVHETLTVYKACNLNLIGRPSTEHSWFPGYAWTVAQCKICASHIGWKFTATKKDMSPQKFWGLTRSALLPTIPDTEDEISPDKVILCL

[4] = molecular target: T1, Cereblon/Ikaros (Homo sapiens); experiment: Protac activity at CRBN/IKZF1 in human MM1.S cells assessed as protein levels at 1 uM measured after 72 hrs by Western blot analysis relative to control; type: cell-based
[5] = molecular target: Protein cereblon/Zinc finger protein Aiolos (Homo sapiens) (UniProt Q96SW2+Q9UKT9); experiment: Protac activity at CRBN/IKZF3 in human MM1.S cells assessed as protein levels at 1 uM measured after 72 hrs by Western blot analysis relative to control; type: cell-based
Sequence of Protein cereblon/Zinc finger protein Aiolos (Homo sapiens) (Q96SW2 whole entry, looked up): as the sequence (Q96SW2 whole entry partner) above
Sequence of Protein cereblon/Zinc finger protein Aiolos (Homo sapiens) (Q9UKT9 whole entry, looked up): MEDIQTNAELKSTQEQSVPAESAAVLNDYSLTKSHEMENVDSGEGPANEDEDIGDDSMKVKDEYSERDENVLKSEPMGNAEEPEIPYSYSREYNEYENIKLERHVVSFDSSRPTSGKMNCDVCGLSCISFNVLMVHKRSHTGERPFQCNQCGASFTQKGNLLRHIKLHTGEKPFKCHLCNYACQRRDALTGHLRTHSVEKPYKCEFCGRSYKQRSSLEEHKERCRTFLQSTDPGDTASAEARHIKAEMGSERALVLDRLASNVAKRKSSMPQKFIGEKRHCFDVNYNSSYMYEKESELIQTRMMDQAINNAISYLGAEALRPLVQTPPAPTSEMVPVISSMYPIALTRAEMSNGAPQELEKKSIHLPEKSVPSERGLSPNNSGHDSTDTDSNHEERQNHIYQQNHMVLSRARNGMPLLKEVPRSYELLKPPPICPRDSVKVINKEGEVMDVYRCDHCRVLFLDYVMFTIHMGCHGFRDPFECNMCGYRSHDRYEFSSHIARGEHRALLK

[6] = Protac activity at CRBN/IKZF3 in human MM1.S cells assessed as induction of IKZF3 degradation at 0.1 to 1 uM measured after 16 hrs by Western blotting analysis; details: dose 0.1-1 µM
[7] = Stability in human plasma assessed as half life measured up tp 120 mins by HPLC analysis; type: ADME, cell-free
MM1.S = experiment: Cytotoxicity against human MM1.S cells assessed as effect on cell viability at 0.1 to 10 uM incubated for 72 hrs by luminescence based analysis; type: functional; details: dose 0.1-10 µM

Row | SMILES | logD (physchem) | remaining at 24 h [1] | Activity [2] | also measured
1 | O=C1CCC(N2C(=O)c3ccc(NCCOCCOCCOCc4ccccc4)cc3C2=O)C(=O)N1 (centres undefined) | 2.6 | 70% | 19% | 
2 | CC(=O)c1c(C)c2cnc(Nc3ccc(N4CCN(CC(=O)NCCOCCOCCOCC(=O)Nc5cccc6c5CN(C5CCC(=O)NC5=O)C6=O)CC4)cn3)nc2n(C2CCCC2)c1=O (centres undefined) |  |  |  | Activity [3]: 56%; Activity [4]: > 95%; Activity [5]: > 95%; Activity [6]: inactive
3 | O=C1CCC(N2C(=O)c3ccc(C(=O)NCCOCCOCCOCc4ccccc4)cc3C2=O)C(=O)N1 (centres undefined) | 1.9 | 1% |  | 
4 | O=C1CCC(N2Cc3c(OCCOCCOCCOCc4ccccc4)cccc3C2=O)C(=O)N1 (centres undefined) |  | 78% | 22% | 
5 | O=C1CCC(N2C(=O)c3ccc(OCCOCCOCCOCc4ccccc4)cc3C2=O)C(=O)N1 (centres undefined) | 2.9 | 30% | 0% | half-life [7]: > 2 h
6 | O=C(COCCOCCOCc1ccccc1)NCc1ccc2c(c1)C(=O)N(C1CCC(=O)NC1=O)C2=O (centres undefined) | 1.8 | 16% | 0% | 
7 | O=C(COc1ccc2c(c1)C(=O)N(C1CCC(=O)NC1=O)C2=O)NCCOCCOCCOCc1ccccc1 (centres undefined) | 2 | 15% | 0% | 
8 | O=C1CCC(N2C(=O)c3cccc(C#CCOCCOCCOCc4ccccc4)c3C2=O)C(=O)N1 (centres undefined) | 3.2 | 6% |  | 
9 | O=C1CCC(N2C(=O)c3cccc(C(=O)NCCOCCOCCOCc4ccccc4)c3C2=O)C(=O)N1 (centres undefined) | 1.9 | 3% |  | 
10 | O=C1CCC(N2Cc3cc(NCCOCCOCCOCc4ccccc4)ccc3C2=O)C(=O)N1 (centres undefined) | 2.1 | 79% | 0% | 
11 | CC(=O)c1c(C)c2cnc(Nc3ccc(N4CCN(CC(=O)NCCOCCOCCOCCNC(=O)COc5cccc6c5C(=O)N(C5CCC(=O)NC5=O)C6=O)CC4)cn3)nc2n(C2CCCC2)c1=O (centres undefined) |  |  |  | Activity [3]: 66%; Activity [4]: > 95%; Activity [5]: > 95%; Activity [6]: inactive
12 | O=C1CCC(N2Cc3cc(OCCOCCOCCOCc4ccccc4)ccc3C2=O)C(=O)N1 (centres undefined) | 2.2 | 73% | 16% | half-life [7]: > 2 h
13 | O=C1CCC(N2Cc3c(NCCOCCOCCOCc4ccccc4)cccc3C2=O)C(=O)N1 (centres undefined) | 2.4 | 74% | 5% | half-life [7]: > 2 h
14 | O=C1CCC(N2C(=O)c3ccccc3C2=O)C(=O)N1CCOCCOCCOCc1ccccc1 (centres undefined) |  | 19% |  | 
15 | O=C1c2cccc(OCCOCCOCCOCc3ccccc3)c2C(=O)N1C1CCCCC1 |  | 90% |  | 
16 | CC(=O)c1c(C)c2cnc(Nc3ccc(N4CCN(CC(=O)NCCOCCOCCOCCNc5cccc6c5C(=O)N(C5CCC(=O)NC5=O)C6=O)CC4)cn3)nc2n(C2CCCC2)c1=O (centres undefined) |  |  |  | Activity [3]: 26%; Activity [4]: 2%; Activity [5]: 2%; Activity (MM1.S): Active
17 | O=C1CCC(N2C(=O)c3cccc(NCCOCCOCCOCc4ccccc4)c3C2=O)C(=O)N1 (centres undefined) | 3.1 | 80% | 64% | half-life [7]: > 2 h
18 | O=C(CNc1ccc2c(c1)C(=O)N(C1CCC(=O)NC1=O)C2=O)NCCOCCOCCOCc1ccccc1 (centres undefined) | 1.8 | 56% | 6% | 
19 | O=C1CCC(N2C(=O)c3ccc(NC(=O)COCCOCCOCc4ccccc4)cc3C2=O)C(=O)N1 (centres undefined) | 2.3 | 11% | 1% | 
20 | O=C1CCC(N2C(=O)c3cccc(OCCOCCOCCOCc4ccccc4)c3C2=O)C(=O)N1 (centres undefined) | 2.6 | 46% | 5% | 
21 | O=C(COc1cccc2c1C(=O)N(C1CCC(=O)NC1=O)C2=O)NCCOCCOCCOCc1ccccc1 (centres undefined) | 2 | 17% | 0% | 
22 | O=C1NCCCC1N1C(=O)c2cccc(OCCOCCOCCOCc3ccccc3)c2C1=O (centres undefined) |  | 99% |  | 
23 | CC(=O)c1c(C)c2cnc(Nc3ccc(N4CCN(CC(=O)NCCOCCOCCOCC(=O)NCc5cccc6c5C(=O)N(C5CCC(=O)NC5=O)C6=O)CC4)cn3)nc2n(C2CCCC2)c1=O (centres undefined) |  |  |  | Activity [3]: 68%; Activity [4]: > 95%; Activity [5]: > 95%; Activity (MM1.S): Active; Activity [6]: Active
24 | O=C1CCC(N2C(=O)c3ccc(C#CCOCCOCCOCc4ccccc4)cc3C2=O)C(=O)N1 (centres undefined) | 3.3 | 1% |  | 
25 | O=C(COCCOCCOCc1ccccc1)NCc1cccc2c1C(=O)N(C1CCC(=O)NC1=O)C2=O (centres undefined) | 2 | 21% | 73% | half-life [7]: > 2 h
26 | O=C1CCC(N2Cc3c(NC(=O)COCCOCCOCc4ccccc4)cccc3C2=O)C(=O)N1 (centres undefined) | 1.6 | 79% | 0% | half-life [7]: 1.45 h
27 | O=C(CNc1cccc2c1C(=O)N(C1CCC(=O)NC1=O)C2=O)NCCOCCOCCOCc1ccccc1 (centres undefined) | 2.1 | 68% | 29% | half-life [7]: > 2 h
28 | O=C1CCC(N2Cc3cc(NC(=O)COCCOCCOCc4ccccc4)ccc3C2=O)C(=O)N1 (centres undefined) | 1.8 | 73% | 6% | 
29 | O=C1CCC(N2C(=O)c3cccc(NC(=O)COCCOCCOCc4ccccc4)c3C2=O)C(=O)N1 (centres undefined) | 2.6 | 15% | 14% | half-life [7]: 1.97 h
